{
  "source": "the NIST ThermoML archive (doi:10.1016/j.jct.2016.07.035)",
  "details": "Crystal; visual observation",
  "note": "Numbers after ± are expanded uncertainties.",
  "data": [
    {"smiles": "COC(=O)C1=C(C)NC(C)=C(C(=O)OC)C1c1ccccc1[N+](=O)[O-]", "values": [
      {"measurement": "Normal melting temperature", "result": "173.50 ± 2.1", "unit": "°C"}
    ]}
  ]
}
